Assay results published in the OligoGym collection.
Bases are written 5' to 3'; sugars and linkages follow in the same order, as letters with counts (s phosphorothioate, o phosphodiester; PS: all linkages phosphorothioate). The collection does not say whether C is 5-methylated. l = locked nucleic acid (LNA); d = 2'-deoxy (DNA)

biological target: Tau; assay: rat primary cortical neurons, FLIPR, 25 uM ASO

| Sequence | calcium oscillation score |
| --- | --- |
| ACCCATCTTAATTCATTTAA (sugars l3 d14 l3, PS) | 96.1 % of control |
| ACCCATTATCTGCTCC (sugars l3 d11 l2, PS) | 50.9 % of control |
| ACCCCACATTTGCAAAC (sugars l3 d12 l2, PS) | 63.5 % of control |
| ACCCCACATTTGCAAACC (sugars l2 d13 l3, PS) | 46.2 % of control |
| ACCCCATTTTTGACATA (sugars l3 d12 l2, PS) | 73.1 % of control |
| ACCCCGAATTTACACC (sugars l3 d11 l2, PS) | 97.5 % of control |
| ACCCCGAATTTACACCC (sugars l1 d14 l2, PS) | 86.2 % of control |
| ACCCTTACACATAGCTTC (sugars l2 d13 l3, PS) | 53.9 % of control |
| ACCCTTAGACATAACA (sugars l4 d10 l2, PS) | 75.1 % of control |
| ACCCTTAGACATAACAC (sugars l3 d10 l4, PS) | 59.7 % of control |
| ACCCTTGATCATATTTGTGG (sugars l3 d14 l3, PS) | 30.9 % of control |
| ACCGAACTGCGAGGAGCAGC (sugars l3 d14 l3, PS) | 0 % of control |
| ACCTCATTAAGATCACC (sugars l2 d11 l4, PS) | 69.7 % of control |
| ACCTCCTAGAACACAAC (sugars l4 d10 l3, PS) | 53.9 % of control |
| ACCTCCTGGTTTAT (sugars l3 d8 l3, PS) | 89.7 % of control |
| ACCTCCTGGTTTATGA (sugars l3 d10 l3, PS) | 32.2 % of control |
| ACCTCCTGGTTTATGATGGA (sugars l3 d14 l3, PS) | 0 % of control |
| ACCTCGTCAGCTAGCG (sugars l3 d10 l3, PS) | 65.2 % of control |
| ACCTCTTAGTCATCTTCC (sugars l2 d13 l3, PS) | 74.4 % of control |
| ACCTCTTAGTCATCTTCCC (sugars l2 d15 l2, PS) | 67.9 % of control |
| ACCTGGCCACCTCCTG (sugars l3 d10 l3, PS) | 28.6 % of control |
| ACCTTACCACTTTCAG (sugars l3 d10 l3, PS) | 104 % of control |
| ACCTTGCTCAGGTCAACTGG (sugars l3 d14 l3, PS) | 2.59 % of control |
| ACCTTTTTCCATCTTACT (sugars l4 d12 l2, PS) | 68.4 % of control |
| ACCTTTTTCCATCTTACTAA (sugars l4 d13 l3, PS) | 52 % of control |
| ACGCACCAGGAACCTTCCAG (sugars l3 d14 l3, PS) | 36.7 % of control |
| ACGTGGGTGATATTGTCCAG (sugars l3 d14 l3, PS) | 0 % of control |
| ACGTTGCTAAGATCCA (sugars l3 d10 l3, PS) | 18.1 % of control |

| Sequence | calcium oscillation score |
| --- | --- |
| ACTAACTCTAAGTAGACCCT (sugars l3 d14 l3, PS) | 40.3 % of control |
| ACTAATATTAACACTAT (sugars l4 d9 l4, PS) | 79.5 % of control |
| ACTAGCCCACCCATCAATTT (sugars l3 d14 l3, PS) | 12.9 % of control |
| ACTATGAAATCCTTCT (sugars l4 d8 l4, PS) | 92.1 % of control |
| ACTCAAATCAATTCTCATTT (sugars l4 d12 l4, PS) | 70.1 % of control |
| ACTCAACATTACCCTTAAA (sugars l4 d11 l4, PS) | 82.4 % of control |
| ACTCAACATTACCCTTAAAT (sugars l4 d14 l2, PS) | 71.5 % of control |
| ACTCAGTTCTCTATAAT (sugars l4 d9 l4, PS) | 64.1 % of control |
| ACTCATCAACACCTTTTAAT (sugars l2 d14 l4, PS) | 63 % of control |
| ACTCATTTACCAATTATCTT (sugars l2 d14 l4, PS) | 60.6 % of control |
| ACTCTAAGTAGACCCTGGCC (sugars l3 d14 l3, PS) | 4.76 % of control |
| ACTCTTAGCATCCACTT (sugars l4 d11 l2, PS) | 40.6 % of control |
| ACTCTTTGAACACCCCA (sugars l2 d12 l3, PS) | 88.9 % of control |
| ACTCTTTGAACACCCCAT (sugars l4 d12 l2, PS) | 38.3 % of control |
| ACTGATCATAATCCTA (sugars l3 d9 l4, PS) | 81.1 % of control |
| ACTGATCATAATCCTAC (sugars l4 d9 l4, PS) | 68.2 % of control |
| ACTGCGAGGAGCAGCT (sugars l3 d10 l3, PS) | 48.1 % of control |
| ACTGCTCAGCTAAGACCCTC (sugars l3 d14 l3, PS) | 23.9 % of control |
| ACTGGCGACTTGTACACGAT (sugars l3 d14 l3, PS) | 0 % of control |
| ACTGGTTAGCCCTAAA (sugars l3 d10 l3, PS) | 3.83 % of control |
| ACTGGTTTGTAGACTATTTG (sugars l3 d14 l3, PS) | 0 % of control |
| ACTGTTACACATTTATC (sugars l4 d9 l4, PS) | 79.8 % of control |
| ACTTAAAATTTTTCTTATT (sugars l4 d11 l4, PS) | 75.1 % of control |
| ACTTAAATTTATTTTCTTTT (sugars l4 d12 l4, PS) | 55.8 % of control |
| ACTTACTGATCATAAT (sugars l4 d8 l4, PS) | 77.2 % of control |
| ACTTATCTATCCATCTAT (sugars l4 d11 l3, PS) | 80.2 % of control |
| ACTTATCTATCCATCTATT (sugars l3 d12 l4, PS) | 55.8 % of control |
